In US8778975B2, “Helicobacter pylori eradicating agent having inhibitory activity on gastric acid secretion” (Link Geonomics, Inc., priority 2006, dated 2014):
Converted amounts (≈) assume the structure as drawn. Read-outs that look alike come from different tables or passages of the source.

Key:
[1] = system: Helicobacter pylori standard strains ATCC 43504, ATCC 43629, ATCC 43570 and clinically separated strains; assay: Anti-Helicobacter pylori activity (MIC), standard and clinically separated strains, Pharmacological Test Example 2; assay type: cell-based
Method: For the bacterium Helicobacter pylori, standard strains ATCC 43504, ATCC 43629 and ATCC 43570 were used to perform in vitro tests in Columbia agar medium. The bacteria were cultured at 37° C. and pH 7.0 for 3 days. On the 4th day, the minimum growth inhibitory concentration (MIC, μg/ml) was determined. Each of the specimens was dissolved in a 1% DMSO solution. Furthermore, amoxicillin and clarithromycin were used as control drugs of antibacterial substance. Further, the compound described in the article of Thomas C. Kuehler (J. Med.

[2] = system: clinically separated clarithromycin-resistant strains and amoxicillin-insensitive strains of Helicobacter pylori; assay: Antibacterial potency (MIC) against clarithromycin-resistant and amoxicillin-insensitive strains, Pharmacological Test Example 3; assay type: cell-based
Method: A test was conducted on the antibacterial potency of the compounds of the present invention against the clarithromycin-resistant strains and amoxicillin-insensitive strains of the bacterium Helicobacter pylori.
A test was conducted on the antibacterial potency of the compounds of the present invention, using clinically separated clarithromycin-resistant strains and amoxicillin-insensitive strains of the bacterium Helicobacter pylori. For the respective strains, in vitro tests were performed in Columbia agar medium. Each of the specimens was dissolved in a 1% DMSO solution. The bacteria were cultured at 37° C. and pH 7.0 for 3 days, and on the 4th day, the minimum growth inhibitory concentration (MIC, μg/ml) was determined.

[3] = system: Escherichia coli (ATCC 10536); assay: Antibacterial test (MIC), Gram-negative bacteria; assay type: cell-based
Source text: (§1) As for the Gram-negative bacteria, E. coli (ATCC 10536, ATCC 25922), Klebsiella pneumonia (ATCC 10031), Proteus vulgaris (ATCC 13315), Pseudomonas aeruginosa (ATCC 9027), and Salmonella typhimurium (ATCC 13311) were used, and as for the Gram-positive bacteria, Staphylococcus aureus, MRSA (ATCC 33591), Staphylococcus epidermidis (ATCC 12228), Streptococcus pneumonia (ATCC 6301), Mycobacterium ranae (ATCC 110), and Enterococcus faecalis (VRE, ATCC 51575) were used. The various bacteria were cultured at 37° C. for 20 to 48 hours by conventional methods, and the minimum growth inhibitory concentration (MIC, μg/ml) was determined. Each of the specimens was dissolved in a 1% DMSO solution. Furthermore, amoxicillin, clarithromycin and gentamycin were used as control drugs of antibacterial substance.

[4] = system: Escherichia coli (ATCC 25922); assay: Antibacterial test (MIC), Gram-negative bacteria; assay type: cell-based
Source text: as §1

[5] = system: Proteus vulgaris (ATCC 13315); assay: Antibacterial test (MIC), Gram-negative bacteria; assay type: cell-based
Source text: as §1

[6] = system: Pseudomonas aeruginosa (ATCC 9027); assay: Antibacterial test (MIC), Gram-negative bacteria; assay type: cell-based
Source text: as §1

[7] = system: Salmonella typhimurium (ATCC 13311); assay: Antibacterial test (MIC), Gram-negative bacteria; assay type: cell-based
Source text: as §1

[8] = system: Enterococcus faecalis (VRE, ATCC 51575); assay: Antibacterial test (MIC), Gram-positive bacteria; assay type: cell-based
Source text: as §1

[9] = system: Staphylococcus aureus, MRSA (ATCC 33591); assay: Antibacterial test (MIC), Gram-positive bacteria; assay type: cell-based
Source text: as §1

[10] = system: Streptococcus pneumonia (ATCC 6301); assay: Antibacterial test (MIC), Gram-positive bacteria; assay type: cell-based; conditions: Streptococcus pneumoniae, ATCC6301
Source text: as §1

[11] = system: Helicobacter pylori bacteria (ATCC 43504); assay: Antiulcer action and bacteria eradicating action in Helicobacter pylori-infected Mongolian gerbils; assay type: in vivo; conditions: for Number of Bacteria (average) (log CFU): gastric mucosa
Method: Mongolian gerbils were experimentally infected with Helicobacter pylori bacteria, and the antiulcer action and the Helicobacter pylori bacteria eradicating action of the compounds of the present invention were tested.
Male Mongolian gerbils (30 to 40 g), five animals in each group, were orally inoculated with Helicobacter pylori bacteria (ATCC 43504) at 1.6×10^7 CFU/0.5 ml/mouse, and bred for one week, and then drug was administered two times a day for two weeks. Thereafter, the […] were bred for three weeks, and then the rats were fasted for 18 hours and subjected to abdominal section, followed by autopsy. The severity of gastric ulcer, the number of Helicobacter pylori bacteria in the gastric mucosa, and the antibody titer were measured.

[12] = system: Klebsiella pneumonia (ATCC 10031); assay: Antibacterial test (MIC), Gram-negative bacteria; assay type: cell-based
Source text: as §1

[13] = system: Mycobacterium ranae (ATCC 110); assay: Antibacterial test (MIC), Gram-positive bacteria; assay type: cell-based
Source text: as §1

[14] = system: Staphylococcus epidermidis (ATCC 12228); assay: Antibacterial test (MIC), Gram-positive bacteria; assay type: cell-based
Source text: as §1

[15] = Clinically separated strain PT1045482
[16] = Clinically separated strain PT1045483
[17] = Clinically separated strain PT1045484
[18] = Helicobacter pylori, AMO-insensitive strain NO. 4, read-out: MIC
[19] = Helicobacter pylori, CAM-resistant strain NO. 1, read-out: MIC
[20] = Helicobacter pylori, CAM-resistant strain NO. 2, read-out: MIC
[21] = Helicobacter pylori, CAM-resistant strain NO. 3, read-out: MIC
[22] = Helicobacter pylori, CAM-resistant strain NO. 4, read-out: MIC
[23] = Salmonella enterica, read-out: MIC

| Compound | MIC [1, 15] [µg/mL] | MIC [1, 16] [µg/mL] | MIC [1, 17] [µg/mL] | MIC ([1]; Standard strain ATCC 43504) [µg/mL] | MIC ([1]; Standard strain ATCC 43570) [µg/mL] | MIC ([1]; Standard strain ATCC 43629) [µg/mL] | MIC [2, 18] [µg/mL] | MIC [2, 19] [µg/mL] | MIC [2, 20] [µg/mL] | MIC [2, 21] [µg/mL] | MIC [2, 22] [µg/mL] | MIC ([3]; ATCC10536, read-out: MIC) [µg/mL] | MIC ([4]; ATCC25922, read-out: MIC) [µg/mL] | MIC ([5]; ATCC13315, read-out: MIC) [µg/mL] | MIC ([6]; ATCC9027, read-out: MIC) [µg/mL] | MIC [7, 23] [µg/mL] | MIC [8] [µg/mL] | MIC ([9]; read-out: MIC) [µg/mL] | MIC [10] [µg/mL] | other results |
| --- | --- | --- | --- | --- | --- | --- | --- | --- | --- | --- | --- | --- | --- | --- | --- | --- | --- | --- | --- | --- |
| CC1(C)S[C@@H]2[C@H](NC(=O)[C@H](N)c3ccc(O)cc3)C(=O)N2[C@H]1C(=O)O [AMPC, Amoxicillin] | 0.06 (≈ 0.164 µM) | 0.06 (≈ 0.164 µM) | 0.06 (≈ 0.164 µM) | 0.06 (≈ 0.164 µM) | < 0.015 | 0.06 (≈ 0.164 µM) | 0.12 (≈ 0.328 µM) | < 0.015 | < 0.015 | < 0.015 | < 0.015 | 6.25 (≈ 17.1 µM) | 6.25 (≈ 17.1 µM) | 6.25 (≈ 17.1 µM) | > 100 | 0.3 (≈ 0.821 µM) | 0.3 (≈ 0.821 µM) | 0.1 (≈ 0.274 µM) | 0.01 (≈ 0.0274 µM) | MIC ([2]; AMO-insensitive strain NO. 2): 0.25 µg/mL (≈ 0.684 µM); MIC ([2]; AMO-insensitive strain NO. 3): 0.25 µg/mL (≈ 0.684 µM); MIC ([2]; Helicobacter pylori): 0.25 µg/mL (≈ 0.684 µM); Antibody titer (average) ([11]; 10 mg/kg): 0.40; Number of Bacteria (average) (log CFU) ([11]; 10 mg/kg): 5.0 log CFU; Number of Ulcers discovered ([11]; 10 mg/kg, two times a day for two weeks): 4/5; responders at 10 mg/kg ([11]; Helicobacter pylori, ATCC43504, 336 h, 10 mg/kg, two times a day for two weeks, read-out: Eradication rate (%)): 20% |
| CC[C@H]1OC(=O)[C@H](C)[C@@H](O[C@H]2C[C@@](C)(OC)[C@@H](O)[C@H](C)O2)[C@H](C)[C@@H](O[C@@H]2O[C@H](C)C[C@H](N(C)C)[C@H]2O)[C@](C)(OC)C[C@@H](C)C(=O)[C@H](C)[C@@H](O)[C@]1(C)O [CAM, Clarithromycin] | 0.3 (≈ 0.401 µM) | 0.3 (≈ 0.401 µM) | 0.3 (≈ 0.401 µM) | 0.1 (≈ 0.134 µM) | < 0.015 | 0.1 (≈ 0.134 µM) | 0.03 (≈ 0.0401 µM) | 32 (≈ 42.8 µM) | 8 (≈ 10.7 µM) | 64 (≈ 85.6 µM) | 32 (≈ 42.8 µM) | 50 (≈ 66.8 µM) | 50 (≈ 66.8 µM) | 100 (≈ 134 µM) | > 100 | 25 (≈ 33.4 µM) | 0.1 (≈ 0.134 µM) | 0.1 (≈ 0.134 µM) | 0.02 (≈ 0.0267 µM) | MIC ([2]; Helicobacter pylori, AMO-insensitive strain NO. 1, read-out: MIC): 0.06 µg/mL (≈ 0.0802 µM); MIC ([2]; Helicobacter pylori, AMO-insensitive strain NO. 2, read-out: MIC): 0.03 µg/mL (≈ 0.0401 µM); MIC ([2]; Helicobacter pylori, AMO-insensitive strain NO. 3, read-out: MIC): 0.06 µg/mL (≈ 0.0802 µM); Antibody titer (average) ([11]; 30 mg/kg): 0.35; Number of Bacteria (average) (log CFU) ([11]; 30 mg/kg): 5.2 log CFU; Number of Ulcers discovered ([11]; 30 mg/kg, two times a day for two weeks): 4/5; responders at 30 mg/kg ([11]; Helicobacter pylori, ATCC43504, 336 h, 30 mg/kg, two times a day for two weeks, read-out: Eradication rate (%)): 20% |
| Gentamycin [GEM] | – | – | – | – | – | – | – | – | – | – | – | – | – | – | – | – | – | – | – | MIC [3]: 0.3 µg/mL; MIC [4]: 1.0 µg/mL; MIC [12]: 1.0 µg/mL; MIC [5]: 0.3 µg/mL; MIC [6]: 0.3 µg/mL; MIC [7]: 1.0 µg/mL; MIC [13]: 0.3 µg/mL; MIC [9]: 1.0 µg/mL; MIC [14]: 0.1 µg/mL |
